# Laboratory results from patent US11325907B2, “Crystal form of 1H-imidazo[4,5-b]pyridine-2(3H)-one compound and preparation process therefor” (MEDSHINE DISCOVERY INC., priority 2018, dated 2022).
# Assays:
# [1] = system: collagen-induced arthritis in mice; experiment: In vivo CIA model (collagen-induced arthritis); parameters: species or system DBA/1 mice; Average clinical symptom score: dose or concentration left out as unconfirmed; key to Total pathological score (both hind limbs): each of 4 joint-damage aspects scored 0-4, summed over both hind limbs; conditions: for Total pathological score (both hind limbs): day 38, Mean±SEM
# Source text: A series of symptoms similar to human psoriatic arthritis, such as redness and swelling of the joint, articular cartilage damage, and capsula articularis damage are elicited in the model by injection of type II collagen to activate reactivity of B cells, T cell on bone collagen, and the activated B cells and T cells enter the joints to cause joint inflammation. During pre-clinical evaluation of candidate compounds for treating psoriatic arthritis, collagen-induced arthritis in mice is often used to evaluate the effectiveness.
# The purpose of this experiment was to study the therapeutic effect of Compound 1 on collagen-induced arthritis in mice, so as to provide preclinical pharmacodynamic relevant information for subsequent clinical studies.
# 1. Type II collagen/complete Freund's adjuvant immunization
# Preparation of acetic acid: Diluting acetic acid to 100 mM, which was filtered with 0.22 um filter membrane and stored at 4° C.
# Bovine type II collagen solution: Dissolving bovine type II collagen (CII) in acetic acid solution, which was stored at 4° C. overnight.
# Preparation of emulsion: Mixing the CII solution stored overnight with equal volume of the complete Freund's adjuvant and homogenize the mixture with high-speed homogenizer until the solution formed a stable emulsion.
# Preparation of lipopolysaccharide (LPS): Weighing LPS, adding normal saline, and mixing until a stable solution with concentration of […] was formed.
# The mice were randomly assigned to different treatment groups. The day of the first immunization was recorded as day 0, and the subsequent days were marked sequentially.
# After DBA/1 mice were anesthetized with isoflurane, the prepared collagen emulsion was injected subcutaneously in the tail.
# On day 23, 100 μl of LPS solution was injected intraperitoneally.
# On day 27, when the average clinical score reached about 1, 60 mice with moderate onset were selected, and they were re-randomized according to body weight and score, with 10 mice in each group.
# Dexamethasone as positive control drug in 0.3 mg/kg dose group is commonly used in the CIA model. In addition, the relevant dose design of Compound 1 and the control compound Apremilast were determined according to the results of earlier preliminary experiments. Group 1 was normal mice without any treatment; Group 2 was vehicle control group and was administered vehicle; Group 3 was administered dexamethasone at a dose of 0.3 mg/kg; Group 4 was administered Apremilast at a dose of 5 mg/kg; Group 5, Group 6, and Group 7 were administered Compound 1 with doses of 0.3, 1, and 3 mg/kg, respectively. Administration was given once a day for 11 days in total. The volume of intragastric administration was 10 ml/kg.
# Clinical observation: From 7 days before immunization to 23 days after immunization, the basic health status and body weight changes of DBA/1 mice were observed daily (recorded once a week). After the 23rd day, the health status, morbidity and body weight change of the mice were observed daily (recorded at least three times a week) until the end of the experiment.
# Clinical score: After LPS injection, the morbidities of mice were observed every day. After the onset of disease in mice (clinical symptoms of arthritis), they were scored according to severity of conditions (redness and swelling, joint deformation) according to 0-4 point standard, with a maximum score of 4 for each limb, and a maximum score of 16 for each animal. At least three times of scoring were performed a week.
# Pathology: On day 38, the mouse was euthanized. The two posterior limbs of the mouse were taken, soaked with 10% formalin solution, decalcified with formic acid solution, embedded with paraffin, sectioned, stained with hematoxylin-eosin (HE), and observed with photomicrography. The degree of joint damage was evaluated in four aspects: inflammatory cell infiltration, pannus formation, cartilage injury and bone resorption, and scored according to 0-4 score standard. […]
# [2] = system: TNFα production in human peripheral blood mononuclear cells (hPBMC); experiment: Inhibition of LPS-induced TNFα production in hPBMC; type: cell-based
# Method: The inhibitory activity of Compound 1 of lipopolysaccharide (LPS)-induced TNFα production in human peripheral blood mononuclear cells.
# • 1. Collecting normal human whole blood, which was anticoagulated with EDTA-K2 anticoagulation tube; • 2. Separating PBMC with Ficoll density gradient centrifugation, counting and adjusting the cell concentration to 2×10^6/mL; • 3. To U-bottom 96-well plate were added 2×10^5 cells/well, LPS 1 ng/mL was added, various concentrations of compound at 100 μM, 10 μM, 1 μM, 100 nM, 10 nM, 1 nM, 100 pM, 10 pM, 200 μl system/well, in duplicated wells; • 4. Incubating for 24 h, collecting the supernatant; • 5. Detecting the level of TNFα in supernatant with ELISA, fitting the inhibition curve and calculating IC50 with Graphpad Prism software.
# [3] = target: T1, phosphodiesterase 4B subtype (PDE4B) (Homo sapiens, UniProt Q07343); experiment: Inhibitory activity on PDE4B enzyme (fluorescence polarization); type: biochemical
# T1 construct: amino acid 305 terminal; GST (N); made in house; host or cells: Sf9 insect cells (baculovirus)
# T1 sequence (Q07343 305-736 limits assumed): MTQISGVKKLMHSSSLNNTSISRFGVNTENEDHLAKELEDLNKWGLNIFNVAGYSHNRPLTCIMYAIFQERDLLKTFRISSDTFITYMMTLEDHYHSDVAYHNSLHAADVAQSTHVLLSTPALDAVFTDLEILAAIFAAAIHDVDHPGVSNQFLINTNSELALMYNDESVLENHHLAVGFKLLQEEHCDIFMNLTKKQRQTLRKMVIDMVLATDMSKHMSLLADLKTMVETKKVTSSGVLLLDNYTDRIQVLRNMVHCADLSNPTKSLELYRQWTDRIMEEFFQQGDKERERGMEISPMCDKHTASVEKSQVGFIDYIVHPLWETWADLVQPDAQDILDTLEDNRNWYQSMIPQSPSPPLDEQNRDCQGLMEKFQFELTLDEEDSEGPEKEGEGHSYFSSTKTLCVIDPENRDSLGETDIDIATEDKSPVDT
# Method: This biological experiment based on fluorescence polarization was used to determine AMP/GMP expression, that is, to show enzyme activity by tracking AMP/GMP antibody binding.
# Experimental buffer solution: 10 mM Trihydroxymethyl aminomethane-hydrochloric acid buffer solution (Tris-HCl) (pH 7.5), 5 mM MgCl2, 0.01% Polyoxyethylene lauryl ether (Brij 35), 1 mM Dithiothreitol (DTT), and 1% DMSO.
# Enzymes: Recombinant humanized PDE4B (Genebank Accession Number NM_002600; amino acid 305 terminal) was expressed with baculovirus in Sf9 insect cells using N-terminal GST tag. MW=78 kDa.
# Enzyme substrate: 1 μM cAMP
# Detection: Transcreener®AMP2/GMP2 antibody and AMP2/ GMP2 AlexaFluor633 tracing.
# • 1. Dissolving the recombinant human PDE4B enzyme and enzyme substrate (1 μM cAMP) in freshly prepared experimental buffer; • 2. Transferring the above PDE4B enzyme buffer solution to reaction wells; • 3. Adding Compound 1 dissolved with 100% DMSO to the reaction well with PDE4B enzyme buffer solution via acoustic technology (echo 550 nanoliter range) and incubating for 10 min at room temperature; • 4. […] The range of fluorescence polarization determination is Ex/Em=620/688.
# Data Analysis: The fluorescence polarization signal was converted into nM according to the AMP/GMP standard curve and the control % enzyme activity relative to the DMSO calculated by Excel software. […]
# [4] = Mus musculus, po, 264 h, 0.3 mg/kg gavage once a day for 11 days, read-out: Inhibition rate of area under the clinical score curve (AUC) relative to vehicle control group
"IC50 ([2]; Homo sapiens, PBMC, LPS 1 ng/mL, 24 h, TNFα in supernatant by ELISA) [nM]",In vitro activity of inhibiting PDE4B (conclusion) [3],Structure (SMILES),"Decrease of average clinical symptom score compared to vehicle control group ([1]; 5 mg/kg gavage once a day for 11 days, 37th day, p<0.001)","Total pathological score (both hind limbs) ([1]; 5 mg/kg gavage once a day for 11 days, p<0.05 vs vehicle)","inhibition at 5 mg/kg ([1]; Mus musculus, po, 264 h, 5 mg/kg gavage once a day for 11 days, read-out: Inhibition rate of area under the clinical score curve (AUC) relative to vehicle control group) [%]","Average clinical symptom score ([1]; gavage once a day for 11 days, 37th day)",In vitro activity of inhibiting TNFα production in hPBMC (conclusion) [2],"Clinical average score ([1]; 0.3 mg/kg gavage once a day for 11 days, 37th day, p<0.0001 vs vehicle)",Arthritis pathology (conclusion) ([1]; 1 mg/kg and 3 mg/kg dose groups),"Clinical average score ([1]; 1 mg/kg gavage once a day for 11 days, 37th day, p<0.001 vs vehicle)","Total pathological score (both hind limbs) ([1]; 1 mg/kg gavage once a day for 11 days, p<0.05 vs vehicle)","Clinical average score ([1]; 3 mg/kg gavage once a day for 11 days, 37th day, p<0.0001 vs vehicle)","Total pathological score (both hind limbs) ([1]; 3 mg/kg gavage once a day for 11 days, p<0.0001 vs vehicle)",Therapeutic effect (clinical score and arthritis pathological score) compared with Apremilast ([1]; Compound 1 at 3 mg/kg vs Apremilast at 5 mg/kg),"inhibition at 0.3 mg/kg [1, 4] [%]","inhibition at 1 mg/kg ([1]; Mus musculus, po, 264 h, 1 mg/kg gavage once a day for 11 days, read-out: Inhibition rate of area under the clinical score curve (AUC) relative to vehicle control group) [%]","inhibition at 3 mg/kg ([1]; Mus musculus, po, 264 h, 3 mg/kg gavage once a day for 11 days, read-out: Inhibition rate of area under the clinical score curve (AUC) relative to vehicle control group) [%]","Symptoms of the collagen-induced arthritis (conclusion) ([1]; three dose groups of 0.3, 1 and 3 mg/kg)","Clinical score ([1]; 0.3 mg/kg gavage once a day, from the 30th day until the end of the experiment, p<0.0001 vs vehicle)"
–,–,"CCOc1cc([C@@H](CS(C)(=O)=O)N2C(=O)c3cccc(NC(C)=O)c3C2=O)ccc1OC [Apremilast, reference compound]",3.7,13.90±1.89,41.3,4.2,–,–,–,–,–,–,–,–,–,–,–,–,–
0.56,excellent in vitro activity,CCOc1cc([C@@H](CS(C)(=O)=O)n2c(=O)[nH]c3c(C)c(-c4ccccc4F)cnc32)ccc1OC [Compound 1],–,–,–,–,excellent in vitro activity,3.6,significant improvement,4.3,14.00±2.43,3.5,9.20±1.83,better than that of Apremilast at 5 mg/kg,43.9,39.4,51.7,significantly improved,–
–,–,"C[C@@H]1C[C@H]2[C@@H]3CCC4=CC(=O)C=C[C@]4(C)[C@@]3(F)[C@@H](O)C[C@]2(C)[C@@]1(O)C(=O)CO [Dexamethasone, reference compound]",–,–,–,–,–,–,–,–,–,–,–,–,96.4,–,–,–,0
